Experimental data published in US20260286309A1, “DIFFERENTIATION OF IPSCS IN BIOREACTORS” (REPAIRON GMBH, priority 2022, published 2026).

Key:
[1] = system: iPSCs (TC1133); experiment: Cardiac differentiation of iPSCs in suspension (ambr15, 2-factor protocol CHIR/IWP4); format: cell-based, human
Protocol: The cardiac differentiation potential of iPSCs after long-term culture was assessed by direct differentiation into iPSC-CMs using a published 2-factor protocol (Chen et al., 2015). iPSC aggregates were differentiated in the ambr15 system and the medium was exchanged manually. Briefly, the basal medium on day 0-5 consisted of RPMI 1640+2% B-27 supplement without insulin. From day 6 onwards the basal medium was RPMI 1640+2% b-27 supplement. To initiate mesodermal differentiation, CHIR was added in varying concentrations on day 1. 5 μM IWP4 was added on day 2 and 3 or day 3 and 4 to initiate cardiac differentiation. A main goal of this project was to ensure that the cardiac differentiation potential remains in iPSCs that are cultivated with the developed expansion strategy. The cardiac differentiation potential was assessed by using a published protocol for the directed cardiac differentiation of PSCs in suspension culture (Chen et al., 2015). iPSCs in suspension were successfully differentiated into iPSC-CMs during early passages (Cultivation Optimization Run 12) and during late passages (Cultivation Optimization Run 13) of long-term cultures. Thereby, proof of concept was shown that iPSCs generated with the developed expansion strategy can be used to produce iPSC-CMs in suspension culture.

[2] = system: iPSCs (TC1133); experiment: Y27632 pretreatment before automatic passaging of iPSC aggregates in ambr15 suspension culture (Cultivation Optimization Run 08); format: cell-based, human
From the text: The nucleocounter NC-200 offers fast and reliable assessment of cell number and viability. Furthermore, it is GMP-compliant and is used during the production stage. Single cell suspensions may be directly measured with the NC-200, whereas suspensions with high content of cell clumps should be treated according to special protocols, supplied with the NC-200. These protocols include cell lysis to ensure distinguishability of single nuclei. However, large iPSC aggregates of about 70-250 μm, which were obtained in the suspension culture, could not be sufficiently lysed with the provided protocols within a reasonable time. Therefore, iPSC aggregates were digested using TrypLE before measurement with the NC-200. […] This suspension was then used for measurement with the NC-200 using the “Viability and Cell Count—A100 and B Assay” intended for small cell aggregates.
The pluripotency state of iPSCs was assessed by analyzing the pluripotency-related markers NANOG, TRA-1-60, and OCT4 using flow cytometry. iPSC aggregates were digested with TrypLE to achieve a near singe cell suspension. Subsequently the cells were fixed by adding Histofix to the cell suspension in a 1:1 ratio (resulting in 2% PFA). For analysis, the cells were stained with fluorochrome-conjugated antibodies. Dead cells were excluded from the analysis with Hoechst staining. Accordingly, the expression of a-Actinin and cTNT was analyzed to assess the success of cardiac differentiation.
The aggregate size was analyzed using a Cellavista device. Culture samples were transferred into a 24-well plate prepared with PBS (—Ca2+/—Mg2+) and measured with the Cellavista. Images were processed by the Cellavista software by applying a threshold to discriminate aggregates from background. The software FIJI (Schindelin et al., 2012) was subsequently used to analyze aggregate size.
To increase the degree of reaggregation, pretreatment with ROCK inhibitor Y27632 was tested. Pretreatment of iPSCs with Y27632 has been reported for other procedures that require cell singularization and are stressful for iPSCs (Chatterjee et al., 2011). […]

SMILES	optimal concentration for successful cardiac differentiation ([1]; iPSCs of earlier passages (passage 0)) [µM]	optimal concentration for successful cardiac differentiation ([1]; iPSCs of later passages (passage 8)) [µM]	expression of NANOG ([2]; day 3, passage 1, flow cytometry, Y27632 pretreatment) [%]	expansion rate ([2]; day 5, passage 1, 10 μM Y27632 pretreatment, Versene passaging) [fold]	aggregate size (mean) ([2]; passage 1, Y27632 pretreatment) [μm]
Cc1c[nH]c(-c2cnc(NCCNc3ccc(C#N)cn3)nc2-c2ccc(Cl)cc2Cl)n1 [CHIR, CHIR99021]	6	18			
C[C@@H](N)[C@H]1CC[C@H](C(=O)Nc2ccncc2)CC1 [Y27632]			93	9	162
